Test results reported in patent publication US20260125346A1, “Isoquinolinone Derivatives and 4H-Quinolizinone Derivatives and Pharmaceutical Compositions Thereof for the Treatment of Disease” (BeOne Medicines I GmbH, priority 2023, published 2026).

Experiments:
Assay type in all cases: cell-based
[1] = test system: PI3Kα H1047R mutated cell line T-47D; experiment: Phospho-AKT (Ser473) Inhibition Assay (HTRF), T-47D; settings: for IC50: Homo sapiens, T47D, T-47D, 1 hour treatment, read-out: p-AKT Inhibition assay (S473) IC50 T-47D; for Selectivity: SK-BR-3/T-47D (p-AKT): p-AKT (S473) IC50 ratio
Method: (§1) Cell Culture Maintenance. The T-47D (ATCC, HTB-133) cell line was obtained from the American Type Culture Collection. Cells were maintained in RPMI1640 medium (Gibco, REF #22400105) supplemented with 10% Fetal Bovine Serum (Gibco, REF #10091148). Cultures were maintained in a humidified incubator at 37° C. under 5% CO2/95% air.
Phospho-AKT Inhibition Assay. HTRF Phospho-AKT (Ser473) detection kit (Cisbio, REF #64AKSPEH) was used in phosphor-AKT inhibition assay. For compound screening, PI3Kα H1047R mutated cell line T-47D and WT cell line SK-BR-3 cells were seeded at a density of 3×10^4 cells per well in 96 well plate (Costar, REF #3599) in 95 μL of assay medium (MEM medium (Gibco, REF #12561-056) with 1×NEAA (Gibco, REF #11140-050), 1 mM sodium pyruvate (Gibco, REF #11360-070), and 1 g/ml human insulin (Topscience, REF #T8221)), overnight. Compounds dissolved in 10 mM stock solutions in DMSO were serially diluted 1:3 in DMSO to generate an 11-point dilution series and plated using an INTEGRA ASSIST PLUS pipetting robot. A 20× intermediate compound dilution plate in RPMI1640 medium (200 M starting compound concentration in 2% DMSO) was then prepared. Five μL of intermediate serially diluted compounds were added to the cell plate to final concentrations ranging from […] to 0.1 nM in 0.1% DMSO. 0.1% DMSO alone was used to establish the maximum signal and GDC0077 at final concentration of 10 μM was used as a reference compound for minimum signal. After 1 hour treatment, removed medium and added 50 μL of supplemented lysis buffer (1×) immediately. Incubated for at least 30 minutes at room temperature under shaking. Transferred 16 μL of cell lysate from the 96-well cell-culture plate to a 384-white detection plate (PerkinElmer, Optiplate 384, 6007299). Added 4 μL of premixed antibody solutions prepared in the detection buffer. Incubated 4 hours at room temperature in dark. The plates were read on PHERAstar FSX Microplate reader (BMG LABTECH, Inc.) using standard HTRF settings.
Relative IC50 values were determined using luminescence units by calculating percent inhibition with respect to the in-plate “MIN” (GDC0077 reference control) and “MAX” (DMSO) controls. The data were analyzed using a 4-parameter nonlinear logistic equation (four-parameter logistic concentration-response curve): Y=bottom+[(top−bottom)/1+(X/IC50) slope] • where Y=% inhibition, X=concentration of inhibitor, bottom=minimum value of y attained by curve-fit, top=maximum value of y attained by curve-fit and slope=steepness of curve at the IC50.

[2] = test system: PI3Kα H1047R mutated cell line T-47D cells; experiment: Cell Proliferation Assay (CellTiter-Glo), T-47D; settings: for IC50: Homo sapiens, T47D, 72 h, T-47D, 3 days treatment; for Selectivity: SK-BR-3/T-47D (cell proliferation): cell proliferation IC50 ratio
Method: as §1
(§2) Cell Proliferation Assay. PI3Kα H1047R mutated cell line T-47D cells and WT cell line SK-BR-3 were seeded at a density of 3×10^3 cells per well in 96 well plate (Xinyou Biotechnology, 062096) in 95 μL of culture medium, overnight. Compounds dissolved in 10 mM stock solutions in DMSO were serially diluted 1:3 in DMSO to generate a 9-point dilution series and plated using an INTEGRA ASSIST Plus pipetting robot. A 20× intermediate compound dilution plate in RPMI1640 medium (200 M starting compound concentration in 2% DMSO) was then prepared. Five μL of intermediate serially diluted compounds were added to the cell plate to final concentrations ranging from […] to 1 nM in 0.1% DMSO. 0.1% DMSO alone was used to establish the maximum signal and medium without cells was for minimum signal. After 3 days treatment, equilibrated the plate and its contents at room temperature for approximately 30 minutes. Added 30 μL CellTiter-Glo® Reagent (Promega, REF #G7571) to each well. Then mixed contents for 5 min on plate shaker to induce cell lysis. Incubated at room temperature for 10 minutes to stabilize luminescent signal. The plates were read on PHERAstar FSX Microplate reader using standard luminescence settings.
(§3) Relative IC50 values were determined using luminescence units by calculating percent inhibition with respect to the in-plate “MIN” (medium only) and “MAX” (0.1% DMSO) controls. The data were analyzed using a 4-parameter nonlinear logistic equation (four-parameter logistic concentration-response curve): Y=bottom+[(top−bottom)/1+(X/IC50) slope] • where Y=% inhibition, X=concentration of inhibitor, bottom=minimum value of y attained by curve-fit, top=maximum value of y attained by curve-fit and slope=steepness of curve at the IC50.

[3] = test system: WT cell line SK-BR-3; experiment: Cell Proliferation Assay (CellTiter-Glo), SK-BR-3; settings: Homo sapiens, 72 h; SK-BR-3, 3 days treatment
Method: The SK-BR-3 (ATCC, HTB-30) cell line was obtained from the American Type Culture Collection. Cells were maintained in McCoy' 5A medium (Gibco, REF #16600108) supplemented with 10% Fetal Bovine Serum. Cultures were maintained in a humidified incubator at 37° C. under 5% CO2/95% air.
as §2, §3

Cc1cc(C(C)Nc2ccccc2C(=O)O)c2cc(-c3ccccc3)n(C)c(=O)c2c1 (stereo not drawn) [Example 1, 2-((1-(2,7-dimethyl-1-oxo-3-phenyl-1,2-dihydroisoquinolin-5-yl)ethyl)amino)benzoic acid]
IC50 [1]: 43.5 nM
Selectivity: SK-BR-3/T-47D (p-AKT) [1]: 48.6
IC50 [2]: 84.6 nM
Selectivity: SK-BR-3/T-47D (cell proliferation) [2]: >118
IC50 [3]: > 10000 nM

Cc1cc(C(C)Nc2ccccc2C(=O)O)c2cc(-c3ccccc3C)n(C)c(=O)c2c1 (stereo not drawn) [Example 2, 2-((1-(2,7-dimethyl-1-oxo-3-(o-tolyl)-1,2-dihydroisoquinolin-5-yl)ethyl)amino)benzoic acid]
IC50 [1]: 66.3 nM
Selectivity: SK-BR-3/T-47D (p-AKT) [1]: 43.0
IC50 [2]: 1230 nM
Selectivity: SK-BR-3/T-47D (cell proliferation) [2]: >8.2
IC50 [3]: > 10000 nM

Cc1cc(C(C)Nc2ccccc2C(=O)O)c2cc(-c3cccc(C#N)c3)n(C)c(=O)c2c1 (stereo not drawn) [Example 3, 2-((1-(3-(3-cyanophenyl)-2,7-dimethyl-1-oxo-1,2-dihydroisoquinolin-5-yl)ethyl)amino)benzoic acid]
IC50 [1]: 168 nM
Selectivity: SK-BR-3/T-47D (p-AKT) [1]: 26.0
IC50 [2]: 143 nM
Selectivity: SK-BR-3/T-47D (cell proliferation) [2]: >70
IC50 [3]: > 10000 nM

Cc1cc(C(C)Nc2ccccc2C(=O)O)c2cc(-c3cccc(C(C)(C)C#N)c3)n(C)c(=O)c2c1 (stereo not drawn) [Example 5, 2-((1-(3-(3-(2-cyanopropan-2-yl)phenyl)-2,7-dimethyl-1-oxo-1,2-dihydroisoquinolin-5-yl)ethyl)amino)benzoic acid]
IC50 [1]: 135 nM
Selectivity: SK-BR-3/T-47D (p-AKT) [1]: 34.3
IC50 [2]: 520 nM
Selectivity: SK-BR-3/T-47D (cell proliferation) [2]: >19
IC50 [3]: > 10000 nM

Cc1cc(C(C)Nc2ccccc2C(=O)O)c2cc(-c3ccccc3F)n(C)c(=O)c2c1 (stereo not drawn) [Example 6, 2-((1-(3-(2-fluorophenyl)-2,7-dimethyl-1-oxo-1,2-dihydroisoquinolin-5-yl)ethyl)amino)benzoic acid]
IC50 [1]: 62.4 nM
Selectivity: SK-BR-3/T-47D (p-AKT) [1]: 51.5
IC50 [2]: 326 nM
Selectivity: SK-BR-3/T-47D (cell proliferation) [2]: >31
IC50 [3]: > 10000 nM

Cc1cc(C(C)Nc2ccccc2C(=O)O)c2cc(-c3cccc(F)c3)n(C)c(=O)c2c1 (stereo not drawn) [Example 7, 2-((1-(3-(3-fluorophenyl)-2,7-dimethyl-1-oxo-1,2-dihydroisoquinolin-5-yl)ethyl)amino)benzoic acid]
IC50 [1]: 53.9 nM
Selectivity: SK-BR-3/T-47D (p-AKT) [1]: 34.5
IC50 [2]: 101 nM
Selectivity: SK-BR-3/T-47D (cell proliferation) [2]: >98.8
IC50 [3]: > 10000 nM

Cc1cc(C(C)Nc2ccccc2C(=O)O)c2cc(-c3ccc(F)cc3)n(C)c(=O)c2c1 (stereo not drawn) [Example 8, 2-((1-(3-(4-fluorophenyl)-2,7-dimethyl-1-oxo-1,2-dihydroisoquinolin-5-yl)ethyl)amino)benzoic acid]
IC50 [1]: 66.4 nM
Selectivity: SK-BR-3/T-47D (p-AKT) [1]: 37.7
IC50 [2]: 158 nM
Selectivity: SK-BR-3/T-47D (cell proliferation) [2]: >63
IC50 [3]: > 10000 nM

Cc1cc(C(C)Nc2ccccc2C(=O)O)c2cc(-c3ccc(F)c(F)c3)n(C)c(=O)c2c1 (stereo not drawn) [Example 9, 2-((1-(3-(3,4-difluorophenyl)-2,7-dimethyl-1-oxo-1,2-dihydroisoquinolin-5-yl)ethyl)amino)benzoic acid]
IC50 [1]: 70.9 nM
Selectivity: SK-BR-3/T-47D (p-AKT) [1]: 51.4
IC50 [2]: 143 nM
Selectivity: SK-BR-3/T-47D (cell proliferation) [2]: >70
IC50 [3]: > 10000 nM

Cc1cc(C(C)Nc2ccccc2C(=O)O)c2cc(-c3cc(F)cc(F)c3)n(C)c(=O)c2c1 (stereo not drawn) [Example 10, 2-((1-(3-(3,5-difluorophenyl)-2,7-dimethyl-1-oxo-1,2-dihydroisoquinolin-5-yl)ethyl)amino)benzoic acid]
IC50 [1]: 82 nM
Selectivity: SK-BR-3/T-47D (p-AKT) [1]: 33.3
IC50 [2]: 128 nM
Selectivity: SK-BR-3/T-47D (cell proliferation) [2]: >78
IC50 [3]: > 10000 nM

Cc1cc(C(C)Nc2ccccc2C(=O)O)c2cc(-c3ccc(F)cc3F)n(C)c(=O)c2c1 (stereo not drawn) [Example 11, 2-((1-(3-(2,4-difluorophenyl)-2,7-dimethyl-1-oxo-1,2-dihydroisoquinolin-5-yl)ethyl)amino)benzoic acid]
IC50 [1]: 80.2 nM
Selectivity: SK-BR-3/T-47D (p-AKT) [1]: >125
IC50 [2]: 490 nM
Selectivity: SK-BR-3/T-47D (cell proliferation) [2]: >20.42
IC50 [3]: > 10000 nM

Cc1cc(C(C)Nc2ccccc2C(=O)O)c2cc(-c3cccc(F)c3F)n(C)c(=O)c2c1 (stereo not drawn) [Example 12, 2-((1-(3-(2,3-difluorophenyl)-2,7-dimethyl-1-oxo-1,2-dihydroisoquinolin-5-yl)ethyl)amino)benzoic acid]
IC50 [1]: 55.3 nM
Selectivity: SK-BR-3/T-47D (p-AKT) [1]: 39.0
IC50 [2]: 237 nM
Selectivity: SK-BR-3/T-47D (cell proliferation) [2]: >42
IC50 [3]: > 10000 nM

COc1cccc(-c2cc3c(C(C)Nc4ccccc4C(=O)O)cc(C)cc3c(=O)n2C)c1 (stereo not drawn) [Example 13, 2-((1-(3-(3-methoxyphenyl)-2,7-dimethyl-1-oxo-1,2-dihydroisoquinolin-5-yl)ethyl)amino)benzoic acid]
IC50 [1]: 64 nM
Selectivity: SK-BR-3/T-47D (p-AKT) [1]: 56.1
IC50 [2]: 233 nM
Selectivity: SK-BR-3/T-47D (cell proliferation) [2]: >43
IC50 [3]: > 10000 nM

COc1ccc(-c2cc3c(C(C)Nc4ccccc4C(=O)O)cc(C)cc3c(=O)n2C)cc1 (stereo not drawn) [Example 14, 2-((1-(3-(4-methoxyphenyl)-2,7-dimethyl-1-oxo-1,2-dihydroisoquinolin-5-yl)ethyl)amino)benzoic acid]
IC50 [1]: 63.2 nM
Selectivity: SK-BR-3/T-47D (p-AKT) [1]: 32.5
IC50 [2]: 232 nM
Selectivity: SK-BR-3/T-47D (cell proliferation) [2]: >43
IC50 [3]: > 10000 nM

COc1ccc(-c2cc3c(C(C)Nc4ccccc4C(=O)O)cc(C)cc3c(=O)n2C)cn1 (stereo not drawn) [Example 15, 2-((1-(3-(6-methoxypyridin-3-yl)-2,7-dimethyl-1-oxo-1,2-dihydroisoquinolin-5-yl)ethyl)amino)benzoic acid]
IC50 [1]: 217 nM
Selectivity: SK-BR-3/T-47D (p-AKT) [1]: 38.5
IC50 [2]: 112 nM
Selectivity: SK-BR-3/T-47D (cell proliferation) [2]: >89
IC50 [3]: > 10000 nM

Cc1cc(C(C)Nc2ccccc2C(=O)O)c2cc(-c3cnn(-c4ccc(C(N)=O)cn4)c3)n(C)c(=O)c2c1 (stereo not drawn) [Example 16, 2-((1-(3-(1-(5-carbamoylpyridin-2-yl)-1H-pyrazol-4-yl)-2,7-dimethyl-1-oxo-1,2-dihydroisoquinolin-5-yl)ethyl)amino)benzoic acid]
IC50 [1]: 1580 nM
Selectivity: SK-BR-3/T-47D (p-AKT) [1]: >6.3
IC50 [2]: 591 nM
Selectivity: SK-BR-3/T-47D (cell proliferation) [2]: >17
IC50 [3]: > 10000 nM
